Laboratory results: patent US9242984B2, “Pyrazolyl derivatives as Syk inhibitors” (Merck Sharp & Dohme Corp., priority 2012, dated 2016)
Read-outs that look alike come from different tables or passages of the source.

Target: T1, recombinant human Syk (GST-hSyk fusion protein) (Homo sapiens, UniProt P43405)
T1 construct: purchased Carna Biosciences 08-176
Assay: Homogeneous Time-Resolved Fluorescence (HTRF) assay for the recombinant human Syk enzyme
Assay type: biochemical
Settings: 10-dose titration, 25 μM ATP
Procedure, shortened: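 IC50 came from a four-parameter fit over ten doses, 10 μM to 0.508 nM, with HTRF read-out (Eu-anti-pTyr antibody, SA-APC, EDTA stop, 30 min). The enzyme, 5 pM GST-hSyk, met compound for 10 min, then phosphorylated 250 nM biotin-peptide with 25 μM ATP and 5 mM Mg for 45 min at room temperature, pH 7.5.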

[1] = IC50 class, read-out: rhSYK Activity

Row | IC50 [1] [nM] | IC50 (read-out: rhSYK IC50) [nM] | SMILES
1 | 100 to 1000 | – | Cc1cc(Nc2cc(C)c(Cl)cn2)nc(-c2cnn(CCC(=O)O)c2)c1 [Example 1.27, 3-(4-{6-[(5-chloro-4-methylpyridin-2-yl)amino]-4-methylpyridin-2-yl}-1H-pyrazol-1-yl)propanoic acid]
2 | ≤ 100 | – | Cc1cc(Nc2cc(C(F)(F)F)ccn2)nc(-c2cnn(CC3CNC(=O)O3)c2)c1 (centres unmarked) [Example 1.28, 5-{[4-(4-methyl-6-{[4-(trifluoromethyl)pyridin-2-yl]amino}pyridin-2-yl)-1H-pyrazol-1-yl]methyl}-1,3-oxazolidin-2-one]
3 | ≤ 100 | – | Cc1cc(Nc2cc(C(F)(F)F)ccn2)nc(-c2cnn(CC3CNC(=O)O3)c2)c1 (centres unmarked) [Example 1.29, 5-{[4-(4-methyl-6-{[4-(trifluoromethyl)pyridin-2-yl]amino}pyridin-2-yl)-1H-pyrazol-1-yl]methyl}-1,3-oxazolidin-2-one]
4 | ≤ 100 | – | Cc1cc(Nc2cc(C(F)(F)F)ccn2)nc(-c2cnn(CC(=O)OC(C)(C)C)c2)c1 [Example 1.30, tert-butyl [4-(4-methyl-6-{[4-(trifluoromethyl)pyridin-2-yl]amino}pyridin-2-yl)-1H-pyrazol-1-yl]acetate]
5 | ≤ 100 | – | Cc1cc(Nc2cc(C(F)(F)F)ccn2)nc(-c2cnn(CC(=O)O)c2)c1 [Example 1.31, [4-(4-methyl-6-{[4-(trifluoromethyl)pyridin-2-yl]amino}pyridin-2-yl)-1H-pyrazol-1-yl]acetic acid]
6 | 100 to 1000 | – | Cc1cc(Nc2nccc(C(F)(F)F)n2)cc(-c2cn[nH]c2)n1 [Example 1.44, N-[2-methyl-6-(1H-pyrazol-4-yl)pyridin-4-yl]-4-(trifluoro-methyl)pyrimidin-2-amine]
7 | 100 to 1000 | – | Cc1cc(Nc2cc(C(F)(F)F)ccn2)nc(-c2ccnn2C)n1 [Example 1.45, 6-methyl-2-(1-methyl-1H-pyrazol-5-yl)-N-[4-(trifluoro-methyl)pyridin-2-yl]pyrimidin-4-amine]
8 | 1000 to 10000 | – | Cc1cc(Nc2cc(C(F)(F)F)ccn2)nc(-c2cc(C(F)(F)F)nn2C)n1 [Example 1.46, 6-methyl-2-[1-methyl-3-(trifluoromethyl)-1H-pyrazol-5-yl]-N-[4-(trifluoromethyl)pyridin-2-yl]pyrimidin-4-amine]
9 | ≤ 100 | – | Cc1cc(Nc2nccc(C(C)(F)F)n2)cc(-c2cn[nH]c2)c1 [Example 1.47, 4-(1,1-difluoroethyl)-N-[3-methyl-5-(1H-pyrazol-4-yl)phenyl]pyrimidin-2-amine]
10 | ≤ 100 | – | Cc1cc(Nc2nccc(C(F)(F)F)n2)cc(-c2cnn(C(C)c3ccc(C(=O)O)cc3)c2)c1 (centres unmarked) [Example 1.48, 4-{1-[4-(3-methyl-5-{[4-(trifluoromethyl)pyrimidin-2-yl]amino}phenyl)-1H-pyrazol-1-yl]ethyl}benzoic acid]
11 | ≤ 100 | – | Cc1cc(Nc2nccc(C(F)(F)F)n2)cc(-c2cnn(C(C)c3ccc(C(=O)O)cc3)c2)c1 (centres unmarked) [Example 1.49, 4-{1-[4-(3-methyl-5-{[4-(trifluoromethyl)pyrimidin-2-yl]amino}phenyl)-1H-pyrazol-1-yl]ethyl}benzoic acid]
12 | ≤ 100 | – | Nc1cc(Nc2nccc(C(F)(F)F)n2)cc(-c2cnn(C3CCC(C(=O)O)CC3)c2)c1 (centres unmarked) [Example 1.50, 4-[4-(3-amino-5-{[4-(trifluoromethyl)pyrimidin-2-yl]amino}phenyl)-1H-pyrazol-1-yl]cyclohexanecarboxylic acid]
13 | ≤ 100 | – | Nc1cc(Nc2nccc(C(F)(F)F)n2)cc(-c2cnn(C3CCC(C(=O)O)CC3)c2)c1 (centres unmarked) [Example 1.51, 4-[4-(3-amino-5-{[4-(trifluoromethyl)pyrimidin-2-yl]amino}phenyl)-1H-pyrazol-1-yl]cyclohexanecarboxylic acid]
14 | ≤ 100 | – | CC(=O)Nc1cc(Nc2nccc(C(F)(F)F)n2)cc(-c2cnn(C3CCC(C(=O)O)CC3)c2)c1 (centres unmarked) [Example 1.52, 4-{4-[3-(acetylamino)-5-{[4-(trifluoromethyl)pyrimidin-2-yl]amino}phenyl]-1H-pyrazol-1-yl}cyclohexanecarboxylic acid]
15 | ≤ 100 | – | CC(=O)Nc1cc(Nc2nccc(C(F)(F)F)n2)cc(-c2cnn(C3CCC(C(=O)O)CC3)c2)c1 (centres unmarked) [Example 1.53, 4-{4-[3-(acetylamino)-5-{[4-(trifluoromethyl)pyrimidin-2-yl]amino}phenyl]-1H-pyrazol-1-yl}cyclohexanecarboxylic acid]
16 | ≤ 100 | – | O=C(O)C1CCC(n2cc(-c3cc(Cl)cc(Nc4cc(C(F)(F)F)ccn4)n3)cn2)CC1 (centres unmarked) [Example 1.54, 4-[4-(4-chloro-6-{[4-(trifluoromethyl)pyridin-2-yl]amino}pyridin-2-yl)-1H-pyrazol-1-yl]cyclohexanecarboxylic acid]
17 | ≤ 100 | – | O=C(O)C1CCC(n2cc(-c3cc(Cl)cc(Nc4cc(C(F)(F)F)ccn4)n3)cn2)CC1 (centres unmarked) [Example 1.55, 4-[4-(4-chloro-6-{[4-(trifluoromethyl)pyridin-2-yl]amino}pyridin-2-yl)-1H-pyrazol-1-yl]cyclohexanecarboxylic acid]

Row | IC50 [1] [nM] | IC50 (read-out: rhSYK IC50) [nM] | SMILES
18 | ≤ 100 | – | Cc1cc(Nc2nccc(C(F)(F)F)n2)cc(-c2cnn(C3CCC(C(=O)O)CC3)c2)c1 (centres unmarked) [Example 1.56, 4-[4-(3-methyl-5-{[4-(trifluoromethyl)pyrimidin-2-yl]amino}phenyl)-1H-pyrazol-1-yl]cyclohexanecarboxylic acid]
19 | ≤ 100 | – | Cc1cc(Nc2nccc(C(F)(F)F)n2)cc(-c2cnn(C3CCC(C(=O)O)CC3)c2)c1 (centres unmarked) [Example 1.57, 4-[4-(3-methyl-5-{[4-(trifluoromethyl)pyrimidin-2-yl]amino}phenyl)-1H-pyrazol-1-yl]cyclohexanecarboxylic acid]
20 | ≤ 100 | – | Cc1cc(Nc2nccc(C)n2)cc(-c2cnn(C3CCC(C(=O)O)CC3)c2)c1 (centres unmarked) [Example 1.58, 4-(4-{3-methyl-5-[(4-methylpyrimidin-2-yl)amino]phenyl}-1H-pyrazol-1-yl)cyclohexanecarboxylic acid]
21 | ≤ 100 | – | Cc1cc(Nc2nccc(C)n2)cc(-c2cnn(C3CCC(C(=O)O)CC3)c2)c1 (centres unmarked) [Example 1.59, 4-(4-{3-methyl-5-[(4-methylpyrimidin-2-yl)amino]phenyl}-1H-pyrazol-1-yl)cyclohexanecarboxylic acid]
22 | ≤ 100 | – | O=C(O)C1CCC(n2cc(-c3cc(Cl)cc(Nc4nccc(C(F)(F)F)n4)c3)cn2)CC1 (centres unmarked) [Example 1.60, 4-[4-(3-chloro-5-{[4-(trifluoromethyl)pyrimidin-2-yl]amino}phenyl)-1H-pyrazol-1-yl]cyclohexanecarboxylic acid]
23 | ≤ 100 | – | O=C(O)C1CCC(n2cc(-c3cc(Cl)cc(Nc4nccc(C(F)(F)F)n4)c3)cn2)CC1 (centres unmarked) [Example 1.61, 4-[4-(3-chloro-5-{[4-(trifluoromethyl)pyrimidin-2-yl]amino}phenyl)-1H-pyrazol-1-yl]cyclohexanecarboxylic acid]
24 | ≤ 100 | – | Cc1cc(Nc2cc(C(F)F)ccn2)nc(-c2cnn(C(C)C3CNC(=O)C3)c2)c1 (centres unmarked) [Example 1.62, 4-{1-[4-(6-{[4-(difluoromethyl)pyridin-2-yl]amino}-4-methylpyridin-2-yl)-1H-pyrazol-1-yl]ethyl}pyrrolidin-2-one]
25 | ≤ 100 | – | Cc1cc(Nc2cc(C(F)F)ccn2)nc(-c2cnn(C(C)C3CNC(=O)C3)c2)c1 (centres unmarked) [Example 1.63, 4-{1-[4-(6-{[4-(difluoromethyl)pyridin-2-yl]amino}-4-methylpyridin-2-yl)-1H-pyrazol-1-yl]ethyl}pyrrolidin-2-one]
26 | ≤ 100 | – | Cc1cc(Nc2cc(C(F)F)ccn2)nc(-c2cnn(C(C)C3CNC(=O)C3)c2)c1 (centres unmarked) [Example 1.64, 4-{1-[4-(6-{[4-(difluoromethyl)pyridin-2-yl]amino}-4-methylpyridin-2-yl)-1H-pyrazol-1-yl]ethyl}pyrrolidin-2-one]
27 | ≤ 100 | – | Cc1cc(Nc2nccc(C(F)F)n2)cc(-c2cn[nH]c2)c1 [Example 1.65, 4-(difluoromethyl)-N-[3-methyl-5-(1H-pyrazol-4-yl)phenyl]pyrimidin-2-amine]
28 | ≤ 100 | – | Cc1cc(Nc2cc(C(F)F)ccn2)nc(-c2cnn(C(C)C3CNC(=O)C3)c2)c1 (centres unmarked) [Example 1.66, 4-{1-[4-(6-{[4-(difluoromethyl)pyridin-2-yl]amino}-4-methylpyridin-2-yl)-1H-pyrazol-1-yl]ethyl}pyrrolidin-2-one]
29 | ≤ 100 | 22.1 | COc1ccnc(Nc2cc(C)cc(-c3cnn(CCC(=O)O)c3)c2)n1 [Example 2.1, 3-(4-(3-((4-methoxypyrimidin-2-yl)amino)-5-methylphenyl)-1H-pyrazol-1-yl)propanoic acid]
30 | 100 to 1000 | – | CCOC(=O)CCn1cc(-c2cccc(Nc3nccc(C(F)(F)F)n3)c2)cn1 [Example 2.2, ethyl 3-[4-(3-{[4-(trifluoromethyl)-pyrimidin-2-yl]-amino}phenyl)-1H-pyrazol-1-yl]-propanoate]
31 | ≤ 100 | – | CCOC(=O)CCn1cc(-c2cc(C)cc(Nc3nccc(OC)n3)c2)cn1 [Example 2.3, ethyl 3-(4-{3-[(4-methoxypyrimidin-2-yl)amino]-5-methylphenyl}-1H-pyrazol-1-yl)-propanoate]
32 | ≤ 100 | – | O=C(O)CCn1cc(-c2cccc(Nc3nccc(C(F)(F)F)n3)c2)cn1 [Example 2.5, 3-[4-(3-{[4-(trifluoro-methyl)pyrimidin-2-yl]amino}phenyl)-1H-pyrazol-1-yl]-propanoic acid]
33 | ≤ 100 | – | Cc1cc(Nc2ncc(F)c(C)n2)cc(-c2cnn(CCC(N)=O)c2)c1 [Example 2.6, 3-(4-{3-[(5-fluoro-4-methylpyrimidin-2-yl)amino]-5-methylphenyl}-1H-pyrazol-1-yl)propanamide]
34 | ≤ 100 | – | COc1nc(Nc2cc(C)cc(-c3cnn(CCC(N)=O)c3)c2)ncc1Cl [Example 2.7, 3-(4-{3-[(5-chloro-4-methoxypyrimidin-2-yl)amino]-5-methylphenyl}-1H-pyrazol-1-yl)propanamide]
